Tests used:
[1] = target: T1, mouse SLC26A6b (Mus musculus, UniProt Q8CIW6, R572P); test: Radiolabelled anion uptake/exchange in Xenopus oocytes expressing mouse SLC26A6b; format: cell-based
T1 construct: Full-length mouse SLC26A6b and SLC26A 1 cDNAs were cloned into the Xenopus expression vector pGEMHE; expressed in transfected cells; host or cells: Xenopus laevis oocytes injected with in vitro transcribed cRNA (pGEMHE)
T1 sequence (Q8CIW6 24-758 R572P limits assumed): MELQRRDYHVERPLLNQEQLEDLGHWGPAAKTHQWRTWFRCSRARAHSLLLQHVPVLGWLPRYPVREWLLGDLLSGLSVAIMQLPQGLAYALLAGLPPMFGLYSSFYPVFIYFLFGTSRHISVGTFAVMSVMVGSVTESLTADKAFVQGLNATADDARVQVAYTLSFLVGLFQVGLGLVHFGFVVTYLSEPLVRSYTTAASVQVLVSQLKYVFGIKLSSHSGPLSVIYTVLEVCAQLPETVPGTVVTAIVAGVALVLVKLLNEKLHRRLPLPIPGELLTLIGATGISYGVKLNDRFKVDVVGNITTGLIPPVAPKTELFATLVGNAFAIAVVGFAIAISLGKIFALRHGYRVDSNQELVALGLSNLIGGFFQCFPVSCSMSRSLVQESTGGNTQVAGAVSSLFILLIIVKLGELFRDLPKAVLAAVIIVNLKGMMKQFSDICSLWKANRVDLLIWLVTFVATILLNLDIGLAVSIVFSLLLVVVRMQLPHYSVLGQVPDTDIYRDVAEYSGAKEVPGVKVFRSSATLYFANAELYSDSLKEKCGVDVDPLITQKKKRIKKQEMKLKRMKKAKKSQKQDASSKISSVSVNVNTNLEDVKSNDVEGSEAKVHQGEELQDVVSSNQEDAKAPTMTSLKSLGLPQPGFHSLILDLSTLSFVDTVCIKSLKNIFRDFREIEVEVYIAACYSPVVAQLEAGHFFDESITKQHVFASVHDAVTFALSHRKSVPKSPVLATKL
Method: Full-length mouse SLC26A6b and SLC26A 1 cDNAs were cloned into the Xenopus expression vector pGEMHE (Liman et al., 1992). The SLC26A6 and SLC26A1 expression constructs were linearized, and cRNA was transcribed in vitro using T7 RNA polymerase and a […] MMACHINE® transcription kit (Ambion, Inc. of Austin, Tex., United States of America). Defolliculated oocytes were injected with 25 nl to 50 nl of water or with a solution containing cRNA at a concentration of 0.5 μg/μl (12.5 ng to 25 ng per oocyte) using a Nanoliter-2000 injector (WPI Instruments of Sarasota, Fla., United States of America). Oocytes were incubated at 17° C. in 50% Leibovitz's L-15 media supplemented with penicillin/streptomycin (1000 units/ml) and glutamine for 2-3 days for uptake assays.
For sulphate uptake assays, oocytes were pre-incubated for 20 minutes in chloride-free uptake medium (100 mM NMDG gluconate, 2 mM potassium gluconate, 1 mM calcium gluconate, 1 mM magnesium gluconate, 10 mM HEPES-Tris, pH 6.0 or pH 7.5 as indicated), followed by a 60-minute period for uptake in the same medium supplemented with 1 mM K2^35SO4 (40 μCi/ml). The cells were then washed three times in uptake buffer with 5 mM cold K2SO4 to remove tracer activity in the extracellular fluid. The oocytes were dissolved individually in 10% SDS, and tracer activity was determined by scintillation counting. Uptake of chloride, formate, and oxalate was assayed using the same chloride-free uptake solutions, substituting 8.3 mM ^36Cl, 500 μM [^14C]oxalate, or 50 μM [^14C]formate for labeled sulphate.
For sulphate exchange and cis-inhibition experiments, the concentration of NMDG-gluconate in the uptake solution was adjusted to maintain isotonic osmolality, which was confirmed experimentally using a FISKE® osmometer (Fiske Associates, Inc. of Bethel, Conn., United States of America).

[2] = target: T2, human SLC26A3 (DRA) (Homo sapiens, UniProt P40879); test: Cis-inhibition of 36Cl uptake in oocytes expressing human SLC26A3 (DRA); format: cell-based; conditions: 10 mM anion (FIG. 19)
T2 construct: expressed in transfected cells; host or cells: Xenopus laevis oocytes (SLC26A3-injected)
T2 sequence (P40879 1-764): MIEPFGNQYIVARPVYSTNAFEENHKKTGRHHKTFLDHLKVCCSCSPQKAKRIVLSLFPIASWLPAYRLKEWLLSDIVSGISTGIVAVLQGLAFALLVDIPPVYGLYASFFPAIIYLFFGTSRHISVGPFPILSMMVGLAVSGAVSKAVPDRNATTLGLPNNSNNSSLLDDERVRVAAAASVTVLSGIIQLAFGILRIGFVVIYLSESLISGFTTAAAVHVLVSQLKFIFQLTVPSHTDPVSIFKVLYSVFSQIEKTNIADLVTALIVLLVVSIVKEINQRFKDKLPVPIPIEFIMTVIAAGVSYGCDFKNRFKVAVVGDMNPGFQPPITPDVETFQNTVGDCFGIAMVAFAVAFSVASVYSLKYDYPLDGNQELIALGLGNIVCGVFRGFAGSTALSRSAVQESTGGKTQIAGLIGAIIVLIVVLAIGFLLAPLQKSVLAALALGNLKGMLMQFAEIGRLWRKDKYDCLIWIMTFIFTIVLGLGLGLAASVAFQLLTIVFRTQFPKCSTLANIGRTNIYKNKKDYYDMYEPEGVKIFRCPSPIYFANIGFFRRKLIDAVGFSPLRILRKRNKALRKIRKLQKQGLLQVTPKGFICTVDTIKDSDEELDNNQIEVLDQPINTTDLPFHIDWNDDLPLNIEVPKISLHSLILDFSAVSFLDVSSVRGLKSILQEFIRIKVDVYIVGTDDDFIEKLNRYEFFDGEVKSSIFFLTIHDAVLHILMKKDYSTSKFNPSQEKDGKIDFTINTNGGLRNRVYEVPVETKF
Source text: FIG. 19 depicts cis-inhibition of ^36Cl^− uptake by various anions in oocytes expressing human SLC26A3 (DRA).
The SLC26A6 exchanger is a likely mediator of intestinal oxalate absorption and thus a potential therapeutic target in calcium-oxalate stone disease. Intestinal expression of the SLC26A3 or DRA protein is also robust, in keeping with the genetic role of SLC26A3 in congenital chloride-losing diarrhea. Hoglund, P. et al., 1996. […] Scott, D. A., et al., 1999; Scott, D.A. & Karniski, L. P., 2000.

Structure (SMILES): O=C(O)C(=O)O [oxalate]
- oxalate uptake ([1]; 500 μM [14C]oxalate (FIG. 8A)): 487±50 pmol/oocyte/hour
- exchange of SO4 2− with extracellular anion (trans-stimulation of 35SO4 efflux) ([1]; 10 mM of the anion, 30 minutes (FIG. 7C)): clearly mediated exchange
- oxalate transport inferred from cis-inhibition of Cl transport [2]: minimal if any
